Patent US20260199359A1 (INCYTE CORPORATION, priority 2021, published 2026)
Several values for one entry are separate records, joined by “and”; a condition that tells them apart may be missing. Identical values can stand only once. Like-named read-outs stand apart in the source and are kept apart here.

Tests used:
[1] = Compatibility / immiscibility of bases and trolamine levels in solvent systems; format: physicochemical
[2] = Apparent pH of solvent systems before API addition and of saturated supernatant; format: physicochemical
[3] = SSCR01 with 3.50% w/w of the named base, before API addition
[4] = SSCR01 with 3.50% w/w of the named base, saturated with ruxolitinib phosphate
[5] = SSNA01 with 3.50% w/w of the named base, before API addition
[6] = SSNA01 with 3.50% w/w of the named base, saturated with ruxolitinib phosphate
[7] = SSAG01 with 3.50% w/w of the named base, before API addition
[8] = SSAG01 with 3.50% w/w of the named base, saturated with ruxolitinib phosphate

Row | Compatibility of base with solvent system ([1]; SSAG01) | compatibility of the base with the solvent system ([1]; SSAG01) | Vehicle pH [2, 3] | Supernatant pH [2, 4] | Vehicle pH [2, 5] | Supernatant pH [2, 6] | Compound | other results
1 | Incompatible | incompatible | 10.38 | 3.29 | 10.27 | 4.99 | CCC(N)(CO)CO [2-Amino-2-ethyl-1,3-propanediol] | –
2 | – | – | 11.44 | 3.61 | 10.45 | 4.98 | CC(C)(N)CO [2-Amino-2-methyl-1-propanol] | Vehicle pH [2, 7]: 12.17; Supernatant pH [2, 8]: 4.34
3 | Incompatible | incompatible | 10.88 | – | 10.30 | – | OCCNCCO [Diethanolamine] | –
4 | – | – | 10.63 | 3.49 | 9.89 | 6.51 | CC(O)CNCC(C)O (centres unmarked) [Diisopropanolamine] | apparent pH of SSAG01 following API addition with the named base ([2]; SSAG01, after ruxolitinib phosphate addition): 4.29; Vehicle pH [2, 7]: 11.31; Supernatant pH [2, 8]: 4.29
5 | – | – | – | – | – | – | CC(C)NC(C)C [Diisopropylamine] | Compatibility of base with solvent system ([1]; SSCR01): Incompatible; compatibility of the base with the solvent system ([1]; SSCR01): incompatible; Supernatant pH [2]: 4.80 and 4.53; Vehicle pH [2]: 10.62 and 12.57
6 | – | – | – | – | – | – | N#CC[C@H](C1CCCC1)n1cc(-c2ncnc3[nH]ccc23)cn1 [Ruxolitinib phosphate, ruxolitinib phosphate] | solubility at 24 h (physchem): 11.3 mg/mL
7 | Incompatible | not compatible | 10.08 | 3.45 | – | – | NC(CO)(CO)CO [Tris] | Compatibility of base with solvent system ([1]; SSNA01): Incompatible; compatibility of the base with the solvent system ([1]; SSNA01): incompatible
8 | – | – | – | – | – | – | Ethanolamine | Supernatant pH [2]: 6.65 and 6.55 and 5.33; Vehicle pH [2]: 10.27 and 12.25 and 11.52; apparent pH of SSCR01 following API addition with the named base [2]: 5.33; apparent pH of SSNA01 following API addition with the named base [2]: ca. 6.6
